Laboratory results from ChEMBL document CHEMBL2040772, “Tri-substituted acylhydrazines as tertiary amide bioisosteres: HCV NS5B polymerase inhibitors” (Bioorg Med Chem Lett, 2012).

Legend:
[1] = tested on: Hepatitis C virus; test: Antiviral activity against HCV1a infected in human Huh-7 cells after 3 days by renilla luciferase activity based replicon assay; format: functional, organism-based, Hepacivirus hominis; conditions: subtype 1a, Huh-7, 72 h
[2] = tested on: Hepatitis C virus; test: Inhibition of HCV1b NS5B delta21 polymerase assessed as incorporation of nucleotides into sshRNA template using [33P]-CTP after 15 mins by scintillation counting; parameters: species or system Hepatitis C virus subtype 1b; conditions: 0.25 h
[3] = tested on: Hepatitis C virus; test: Antiviral activity against HCV1b infected in human Huh-7 cells after 3 days by renilla luciferase activity based replicon assay; format: functional, organism-based, Hepacivirus hominis; conditions: genotype 1b, Huh-7, 72 h
[4] = Cytotoxicity against human HuH7 cells after 3 days by measuring conversion of nonfluorescent calcein-AM into fluorescent calcein; format: cell-based, Huh-7
[5] = Lipophilicity, log D of the compound; format: physicochemical; conditions: octanol/water
[6] = Selectivity index, ratio of CC50 for human HuH7 cells to EC50 for HCV1b infected in human Huh-7 cells
[7] = tested on: Hepatitis C virus; test: Binding affinity to HCV1b C-terminally truncated NS5B Cdelta21 RNA dependent RNA polymerase expressed in Escherichia coli by surface plasmon resonance assay; parameters: species or system Hepatitis C virus subtype 1b

SMILES	EC50 [1] [nM]	IC50 [2] [nM]	EC50 [3] [nM]	CC50 at 72 h [4] [nM]	logD [5]	Ratio CC50/EC50 [6]	Kd [7] [nM]
CC(C)N(c1cc(C#CC(C)(C)C)sc1C(=O)O)C(=O)[C@H]1CC[C@H](C)CC1	90	86	26	> 44000	2	–	–
CN([C@H]1CC[C@H](O)CC1)N(c1cc(C#CC(C)(C)C)sc1C(=O)O)C(=O)[C@H]1CC[C@H](C)CC1	–	307	34	> 44000	–	–	8
CN(CC1CCOCC1)N(c1cc(C#CC(C)(C)C)sc1C(=O)O)C(=O)[C@H]1CC[C@H](C)CC1	–	509	47	> 44000	–	–	10
CN(c1ccncc1)N(c1cc(C#CC(C)(C)C)sc1C(=O)O)C(=O)[C@H]1CC[C@H](C)CC1	–	346	3900	36000	–	–	30

More lines, main results first:

EC50 [1] [nM]	IC50 [2] [nM]	EC50 [3] [nM]	SMILES	CC50 at 72 h [4] [nM]	logD [5]	Ratio CC50/EC50 [6]	Kd [7] [nM]
478	88	89	CN(C)N(c1cc(C#CC(C)(C)C)sc1C(=O)O)C(=O)[C@H]1CC[C@H](C)CC1	> 44000	2.1	>400	–
–	52	32	CN(CCO)N(c1cc(C#CC(C)(C)C)sc1C(=O)O)C(=O)[C@H]1CC[C@H](C)CC1	> 44000	–	–	10
–	138	60	CN(C1CCNCC1)N(c1cc(C#CC(C)(C)C)sc1C(=O)O)C(=O)[C@H]1CC[C@H](C)CC1	> 44000	–	–	4
25	63	7	CN1CCC(N(C)N(c2cc(C#CC(C)(C)C)sc2C(=O)O)C(=O)[C@H]2CC[C@H](C)CC2)CC1	> 44000	–	–	4
